Values of other authors in patent publication US6372499B1, “Polymeric complexes for the transfection of nucleic acids, with residues causing the destabilisation of cell membranes” (I.D.M. Immuno-Designed Molecules, priority 1996, dated 2002).

How the values were obtained:
[1] = persons, daily dose of 300 mg per day, after a few days
cells = conditions: after a few hours

CCN(CC)CCCC(C)Nc1ccnc2cc(Cl)ccc12 (stereo not drawn) [chloroquine]
plasma concentration [1]: about 0.7 μM | intracellular concentration relative to the concentration in the medium (cells): more than 100 times higher | intracellular concentration (cells; initial concentration 100 μM): exceed 10 mM
